Data taken from US20050086708A1, “Animal models of retinal tumorigenesis” (priority 2003, published 2005).

Key:
Y79 and Weril cells = assay: Microarray gene expression response of retinoblastoma cells to drugs; format: cell-based, human; conditions: microarray analysis after treatment
Experimental: Microarray Hybridization. The H1 human cDNA microarray was printed at the Hartwell Center for Bioinformatics & Biotechnology at St. Jude Children's Research Hospital. The gene list is available at http://www.ncbi.nlm.nih.gov/geo/ (GEO Accession: GLP345). RNA was isolated from approximately 20×10^6 cells in triplicate for each treatment using Trizol (Invitrogen, Carlsbad, Calif.), and 10 ug total RNA underwent one round of linear amplification using the RiboAmp System (Arcturus Applied Genomics, Carlsbad, Calif.) to yield 100 ug of RNA. The RNA was indirectly labeled using aa-dUTP and conjugated with Cy3 and Cy5. Data were then filtered (see http://www.ncbi.nlm.nih.gov/geo/; GLP345 for details), and cluster analysis was performed.
Following treatment, RNA was isolated and microarray hybridizations were carried out using the human H1 cDNA microarray (see Materials and Methods). […] Using the LD50 of TPT, we tested the combination of TPT and CBP and that of TPT and VCR. […] This effect was additive.
Microarray analysis provided even more information about the response of retinoblastoma cells to chemotherapeutic drugs. […] VCR treatment also altered the expression of a different cohort of genes in comparison to TPT treatment. […]

in vivo = conditions: for Kp: rat, in vivo, iv
Experimental: Pharmacology. Two-week-old rats were treated with TPT (Hycamtin; GlaxoSmithKline, Research Triangle Park, N.C.) at a maximum tolerated dose (MTD) of 2 mg/kg body weight, CBP (Paraplatin; Bristol-Myers Squibb, New York, N.Y.) at an MTD of 70 mg/kg, and VCR (Mayne Pharma (USA Inc., Paramus, N.J.) at an MTD of 0.5 mg/kg; all agents were administered via tail vein injection. TPT was measured by HPLC UV absorption as described (Thompson, J. et. al., id). Atomic absorption spectrometry of ultrafiltered and nonfiltered samples was used to measure platinum levels (Simpson, A. E. et al., “Transscleral diffusion of carboplatin: an in vitro and in vivo study”, Arch Ophthalmol 120: 1069-74 (2002)). Liquid scintillation was used to measure levels of [H^3]-VCR (70-90 Ci/mmol; PerkinElmer, Wellesley, Mass.). Mice received TPT, CBP, and VCR at a dose and schedule similar to that used to treat children with retinoblastoma (Schouten-Van Meeteren, A. Y. et al., “Overview: chemotherapy for retinoblastoma: an expanding area of clinical research”, Med Pediatr Oncol 38: 428-38 (2002)) or other brain tumors.
To measure retinal and vitreal penetration of TPT, CBP, and VCR, we injected each drug intravenously into 2-wk-old rats; this age corresponded to the stage of treatment in our xenograft model. Drug levels were measured in the vitreous, retina, and plasma at 3 min, 30 min, 1.5 h, 4 h, and 6 h after injection.

retinoblastoma [1] = conditions: low-dose, frequent versus infrequent, high-dose administration; cited from earlier work
Y79 cells = assay: Response of cultured retinoblastoma cells to drugs, proportion of viable cells (Y79); format: cell-based, human; conditions: 8 hours exposure, assayed 3 days later
From the text: (§1) Cell Culture. Y79 and Weri1 cells were obtained from the American Type Culture Collection (Manassas, Va.) and maintained in culture in RPMI medium with 10% FCS (McFall, R. C. et al., “Characterization of a new continuous cell line derived from a human retinoblastoma”, Cancer Res 37: 1003-10 (1977)). Stable lines expressing GFP were generated by transfecting pTET-1 (M.A.D. unpublished) into Y79 and Weril cells by using TransFast (Promega, Madison, Wis.); clones were isolated in the presence of hygromycin. To measure live cells, 0.5 ug/ml calcein was used; to measure dead cells, 4 uM ethidium bromide was used.
(§2) Viable Cell Calculation Following Drug Treatment. […] The proportion of cells that had initiated apoptosis (T) was determined by a TUNEL assay.
(§3) Response of Cultured Retinoblastoma Cells to Chemotherapeutic Drugs. […] For all of the cell culture studies, retinoblastoma cells were exposed to drugs at a cell density corresponding to their optimal proliferation and cell survival. The cell number, proportion of metabolically active cells, and proportion of apoptotic cells were combined to generate the proportion of viable cells (see Materials and Methods for calculations). The proportion of dividing cells was estimated by labeling the cultures with BrdU for 1 hour. Initially, cells were exposed to TPT, CBP, or VCR for 8 hours at concentrations ranging from 1 nM to 200 uM, and the cultures were assayed 3 days later.

[2] = tested on: Y79 and Weril retinoblastoma cells; assay: Combination, time course, FACS and DNA-content studies in cultured retinoblastoma cells; format: cell-based, human
From the text: as §1
Immunolabeling and TUNEL and BrdU Assays. Y79 and Weri1 retinoblastoma cells were immunolabeled as described previously for dissociated mouse retinae (Dyer, M. A. & Cepko, C. L., “p27Kip1 and p57Kip2 regulate proliferation in distinct retinal progenitor cell population”, J. of Neurosci 21: 4259-71 (2001); Zhu, C. C. et al., “Six2-mediated auto repression and eye development requires its interaction with members of the Groucho-related family of co-repressors”, Development 129: 2835-49 (2002); Dyer, M. A. & Cepko, C. L., “p57(Kip2) regulates progenitor cell proliferationand amacrine intemeuron development in the mouse retina”, Development 127: 3593-605 (2000)). For in vivo studies, BrdU (100 mg/kg body weight) was administered via tail vein injection. BrdU and TUNEL assays were carried out as described previously (Dyer, M. A. et. al., id, Zhu, C. C. et. al., id; Dyer, M. A. et. al., id). Detailed protocols are available at http://www.stjude.org/dyer.
Fluorescent-Activated Cell Sorting. DNA content was analyzed by dissociating tumors with trypsin (Dyer, M. A. et. al., id; Zhu, C. C. et. al., id; Dyer, M. A. et. al., id) and sorting cells by fluorescent-activated cell sorting (FACS). Cells were washed with PBS, and resuspended in a solution containing 0.05 mg/ml propidium iodide, 0.1% sodium citrate and, 0.1% Triton-X100. Samples were then treated with RNase, filtered through a 40-um nylon mesh, and analyzed on a FACScan (Beckton-Dickson, Franklin Lakes, N.J.).
as §2, §3
Following treatment, RNA was isolated and microarray hybridizations were carried out using the human H1 cDNA microarray (see Materials and Methods).
In these preliminary studies, we included an 8-h drug exposure, because that is the maximum period of drug exposure for children receiving chemotherapy. However, the time that tumor cells are exposed in situ is probably considerably shorter, so we performed a time course experiment to determine the minimum duration of exposure required for the full effect on retinoblastoma cell survival and proliferation.

Weril cells = assay: Response of cultured retinoblastoma cells to drugs, proportion of viable cells (Weri1); format: cell-based, human; conditions: 8 hours exposure, assayed 3 days later
From the text: as §1, §2, §3

retinoblastoma [3] = conditions: subconjunctival administration; cited from earlier work
[4] = tested on: Y79 retinoblastoma xenograft; assay: Orthotopic retinoblastoma xenograft in eyes of newborn rats; format: in vivo, rat
From the text: For some experiments, the retinoblastoma cells were labeled with a GFP transgene to unambiguously establish tumor boundaries.
To establish a baseline prior to chemotherapy treatment in our retinoblastoma xenograft model, we analyzed cell number, survival, proliferation, apoptosis, and gene expression 2 weeks after engraftment. One hour before analysis, the rats received an injection of BrdU to label the cells in the S-phase of the cell cycle, a measure of the fraction of dividing cells. The engrafted cells were microdissected from the normal tissue and dissociated; the total cell number was then scored. Calcein and ethidium bromide were used to measure metabolically active cells and dead cells, respectively. […] The fraction of dividing cells was estimated by staining with an anti-BrdU antibody and scoring the fraction of immunopositive cells. […] To estimate the proportion of cells that had initiated apoptosis, we performed a TUNEL assay.
After one course of treatment, the transplanted retinoblastoma cells were analyzed for viability and proliferation as described above.

[5] = tested on: primary human retinoblastoma tumors; assay: Enlarged nuclei in tumors removed from patients following VCR treatment; format: in vivo; conditions: human tumors treated with VCR; control primary tumors 4%±1%
From the text: We were surprised that VCR was not effective at halting retinoblastoma growth in the orthotopic xenograft model because VCR is often combined with other chemotherapeutic agents in the treatment of retinoblastoma in children. It was possible that there was a minor effect of VCR treatment that was masked in our system by the active proliferation and expansion of the xenograft. One of the hallmarks of VCR exposure is a nucleus with twice the genomic DNA content, because VCR blocks cytokinesis without halting cell cycle progression. To test if there was any VCR-mediated block of mitosis, we scored the proportion of large cells with twice the genomic DNA content in cultured cells, xenografts, and tumors removed from patients following VCR treatment. […] The proportion of enlarged nuclei in xenografts and primary human tumors following VCR treatment was similar to control xenografts (3%±2%) and primary tumors (4%±1%), respectively.

[6] = 2-wk-old rats, intravenous, 3 min to 6 h

SMILES | p53 pathway activation (Y79 and Weril cells) | Kp (in vivo; AUC retina/plasma ratio) | Kp (in vivo; AUC vitreous/plasma ratio) | LD50 (Y79 cells) [nM] | cell cycle arrest phase [2] | exposure sufficient to achieve the maximum reduction in cell survival and proliferation ([2]; time course experiment) [min] | LD50 (Weril cells; Weril cells) [nM] | also measured
CC[C@@]1(O)C(=O)OCc2c1cc1n(c2=O)Cc2cc3c(CN(C)C)c(O)ccc3nc2-1 [TPT, topotecan] | activated | 0.7 | 0.38 | 30 | G2 arrest | 15 | 19 | effect on tumor burden (retinoblastoma [1]): more effectively reduced the tumor burden; proportion of cells arrested in G2 phase (FACS) ([2]; exposed for 10 min): 36%; proportion of cells arrested in G2 phase (FACS) ([2]; exposed for 8 h): 39%
N.N.O=C([O-])C1(C(=O)[O-])CCC1.[Pt+2] [CBP, carboplatin] | not activated |  |  | 4000 | arrested in either the G1 or G2 phase | 15 |  | AUC retina/plasma ratio (in vivo; [6]): 0.03; AUC vitreous/plasma ratio (in vivo; [6]): 0.59; effect on tumor size (retinoblastoma [3]): effective at reducing tumor size; cell number/eye ([4]; 2-wk-old rats, after one course of treatment, untreated 2.4±0.6×10^6): 0.79±0.29×10^6 cell number/eye; LD50 (Weril cells; Weri1 cells): 5000 nM
CC[C@]1(O)C[C@H]2CN(CCc3c([nH]c4ccccc34)[C@@](C(=O)OC)(c3cc4c(cc3OC)N(C=O)[C@H]3[C@@](O)(C(=O)OC)[C@H](OC(C)=O)[C@]5(CC)C=CCN6CC[C@]43[C@@H]65)C2)C1 [VCR, vincristine] |  | 1 | 1.1 | 5 |  |  | 3 | proportion of enlarged nuclei (cell cycle progression without cytokinesis) [5]: 5%±1.5%; exposure time required to kill retinoblastoma cells in culture [2]: 4 h; cells with twice their normal DNA content ([2]; cultured cells, 5 nM for 8 h): Approximately 98%; exposure time of maximum decrease in viability ([2]; time course experiment): 4 h; effect on retinoblastoma cell survival ([4]; short-term assay, one course of treatment): little effect; proportion of enlarged nuclei (cell cycle progression without cytokinesis) ([4]; xenografts treated with VCR, control xenografts 3%±2%): 2%±1%
